This experiment deals with CD2F1 mice, L1210 leukemia ip, survival T/C. Put plainly: NCI In Vivo Anticancer Drug Screen. Data for tumor model L1210 Leukemia (intraperitoneal) in CD2F1 (CDF1) mice. Conditions: higher = longer survival. In short, it runs like this: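 Ratio T/C, where T is the treated-group value and C the vehicle-dosed control value, from mice implanted with a transplantable tumor.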

Setting [1] is: endpoint: mean survival time, dose: 100.0 mg/kg/injection, schedule: Q01DX009 (ip), vehicle: saline with Tween-80.
Where [2] appears, read: endpoint: mean survival time, dose: 100.0 mg/kg/injection, schedule: Q04DX003 (ip), vehicle: saline with Tween-80.
Setting [3] is: endpoint: mean survival time, dose: 200.0 mg/kg/injection, schedule: Q04DX003 (ip), vehicle: saline with Tween-80.
The mark [4] stands for this setting: endpoint: mean survival time, dose: 400.0 mg/kg/injection, schedule: Q04DX003 (ip), vehicle: saline with Tween-80.
Where [5] appears, read: endpoint: mean survival time, dose: 1.0 mg/kg/injection, schedule: Q01DX009 (ip), vehicle: saline.

SMILES strings stand for the structures. Several values for one entry are separate records, joined by “and”; a condition that tells them apart may be missing. Identical values can stand only once. Toxic doses and inconclusive results are not listed.

On to `CC(O)CN1CCOCC1` (stereo not given), for which the T/C under setting [1] is 101 % of control; the T/C (endpoint: mean survival time, dose: 200.0 mg/kg/injection, schedule: Q01DX009 (ip), vehicle: saline with Tween-80) is 105 % of control; the T/C (endpoint: mean survival time, dose: 400.0 mg/kg/injection, schedule: Q01DX009 (ip), vehicle: saline with Tween-80) is 100 % of control.
For the molecule `COc1c(CNC(=O)CCl)cc2[nH]c(C)cc2c1CNC(=O)CCl`, the T/C (endpoint: mean survival time, dose: 12.5 mg/kg/injection, schedule: Q01DX009 (ip), vehicle: Klucel (hydroxypropylcellulose) (HPC)) is 98 % of control; the T/C (endpoint: mean survival time, dose: 25.0 mg/kg/injection, schedule: Q01DX009 (ip), vehicle: Klucel (hydroxypropylcellulose) (HPC)) is 98 % of control and 101 % of control; the T/C (endpoint: mean survival time, dose: 50.0 mg/kg/injection, schedule: Q01DX009 (ip), vehicle: Klucel (hydroxypropylcellulose) (HPC)) is 98 % of control and 103 % of control; the T/C (endpoint: mean survival time, dose: 100.0 mg/kg/injection, schedule: Q01DX009 (ip), vehicle: Klucel (hydroxypropylcellulose) (HPC)) is 97 % of control and 102 % of control; the T/C (endpoint: mean survival time, dose: 200.0 mg/kg/injection, schedule: Q01DX009 (ip), vehicle: Klucel (hydroxypropylcellulose) (HPC)) is 93 % of control and 104 % of control; the T/C (endpoint: mean survival time, dose: 400.0 mg/kg/injection, schedule: Q01DX009 (ip), vehicle: Klucel (hydroxypropylcellulose) (HPC)) is 95 % of control.
As for `COCCNP(=O)(OC(C)C)OC(C)C`, the T/C runs as follows: (endpoint: mean survival time, dose: 100.0 mg/kg/injection, schedule: Q04DX003 (ip), vehicle: saline) 100 % of control; (endpoint: mean survival time, dose: 200.0 mg/kg/injection, schedule: Q04DX003 (ip), vehicle: saline) 97 % of control; (endpoint: mean survival time, dose: 400.0 mg/kg/injection, schedule: Q04DX003 (ip), vehicle: saline) 101 % of control.
Consider `Cc1ccc(S(=O)(=O)/N=S(\C)c2ccc(Cl)cc2)cc1` (stereo not given), for which the T/C is 97 % of control under setting [2], 108 % of control under setting [3] and 90 % of control under setting [4].
Take `CCCS(=O)(=O)Nc1ccc(Nc2c3ccccc3nc3ccccc23)c(OC)c1`: the T/C (endpoint: mean survival time, dose: 3.75 mg/kg/injection, schedule: Q01DX009 (ip), vehicle: saline) was 122 % of control.
As to `C#CC(=O)c1ccccc1`, under “endpoint: mean survival time, dose: 9.4 mg/kg/injection, schedule: Q04DX003 (ip), vehicle: saline”, the T/C was 93 % of control.
For the molecule `CO[C@H]1C[C@H](O[C@H]2CC[C@]3(C=O)[C@H]4CC[C@]5(C)[C@@H](C6=CC(=O)OC6)CC[C@]5(O)[C@@H]4CC[C@]3(O)C2)O[C@H](C)[C@H]1O[C@@H]1O[C@H](CO)[C@@H](O)[C@H](O)[C@H]1O`, the T/C (endpoint: mean survival time, dose: 0.25 mg/kg/injection, schedule: Q01DX009 (ip), vehicle: saline) is 102 % of control; the T/C (endpoint: mean survival time, dose: 0.5 mg/kg/injection, schedule: Q01DX009 (ip), vehicle: saline) is 96 % of control; the T/C under setting [5] is 110 % of control.
On to `Fc1ccc(Nc2c3ccccc3nc3ccccc23)cc1`, for which, under setting [1], the T/C was 96 % of control.
Turning to `CC(C)(C)C(CCC(=O)O)CC(=O)O` (stereo not given), the T/C is 97 % of control under setting [2], 96 % of control under setting [3] and 100 % of control under setting [4].
In the case of `CC1=C(Br)C(=O)C(Br)=C(Br)C1=O`, under “endpoint: mean survival time, dose: 25.0 mg/kg/injection, schedule: Q01DX009 (ip), vehicle: saline with Tween-80”, the T/C is 96 % of control.
For `O=C(O)C1CCc2c(cnn2-c2ccc(Cl)cc2)C1` (stereo not given), the T/C is 96 % of control (endpoint: mean survival time, dose: 100.0 mg/kg/injection, schedule: Q04DX002 (ip), vehicle: saline with Tween-80); 103 % of control (endpoint: mean survival time, dose: 200.0 mg/kg/injection, schedule: Q04DX002 (ip), vehicle: saline with Tween-80); 103 % of control (endpoint: mean survival time, dose: 400.0 mg/kg/injection, schedule: Q04DX002 (ip), vehicle: saline with Tween-80).
`Oc1cc(O)cc(/C=C/c2ccc(O)c(O)c2)c1`: the T/C was 103 % of control (endpoint: median survival time, dose: 6.25 mg/kg/injection, schedule: Q01DX009 (ip), vehicle: DMSO); 109 % of control (endpoint: median survival time, dose: 12.5 mg/kg/injection, schedule: Q01DX009 (ip), vehicle: DMSO); 108 % of control and 109 % of control (endpoint: median survival time, dose: 25.0 mg/kg/injection, schedule: Q01DX009 (ip), vehicle: DMSO); 108 % of control and 109 % of control (endpoint: median survival time, dose: 50.0 mg/kg/injection, schedule: Q01DX009 (ip), vehicle: DMSO); 109 % of control (endpoint: median survival time, dose: 100.0 mg/kg/injection, schedule: Q01DX009 (ip), vehicle: DMSO).
In the case of `CC(C)c1ccc(C(O)C2CC2)cc1` (stereo not given), the T/C is 100 % of control (endpoint: mean survival time, dose: 50.0 mg/kg/injection, schedule: Q01DX009 (ip), vehicle: saline); 100 % of control (endpoint: mean survival time, dose: 100.0 mg/kg/injection, schedule: Q01DX009 (ip), vehicle: saline); 96 % of control (endpoint: mean survival time, dose: 200.0 mg/kg/injection, schedule: Q01DX009 (ip), vehicle: saline).
For the molecule `N#C/C(=C\c1cccc(OCc2ccccc2)c1)c1ccc([N+](=O)[O-])cc1`, the T/C runs as follows: (endpoint: mean survival time, dose: 6.25 mg/kg/injection, schedule: Q04DX003 (ip), vehicle: saline) 98 % of control; (endpoint: mean survival time, dose: 12.5 mg/kg/injection, schedule: Q04DX003 (ip), vehicle: saline) 98 % of control; (endpoint: mean survival time, dose: 25.0 mg/kg/injection, schedule: Q04DX003 (ip), vehicle: saline) 102 % of control.
Turning to `CN(C)S(=O)(=O)Oc1ccccc1N`, the T/C by setting is: under setting [2], 99 % of control; under setting [3], 87 % of control; under setting [4], 94 % of control.
In the case of `NC(=O)c1ncn(C2OC(CO)C(O)C2O)c1Cl` (stereo not given), the T/C is 100 % of control (endpoint: median survival time, dose: 8.0 mg/kg/injection, schedule: Q01DX005 (ip), vehicle: water); 103 % of control (endpoint: median survival time, dose: 16.0 mg/kg/injection, schedule: Q01DX005 (ip), vehicle: water); 100 % of control (endpoint: median survival time, dose: 32.0 mg/kg/injection, schedule: Q01DX005 (ip), vehicle: water); 100 % of control (endpoint: median survival time, dose: 64.0 mg/kg/injection, schedule: Q01DX005 (ip), vehicle: water); 107 % of control (endpoint: median survival time, dose: 128.0 mg/kg/injection, schedule: Q01DX005 (ip), vehicle: water).
Turning to `O=c1[nH]cc(F)c(=O)n1C1OC(CO)C(O)C1O` (stereo not given), the T/C was 169 % of control under setting [5]; 160 % of control (endpoint: mean survival time, dose: 2.0 mg/kg/injection, schedule: Q01DX005 (ip), vehicle: saline); 160 % of control (endpoint: mean survival time, dose: 2.0 mg/kg/injection, schedule: Q01DX009 (ip), vehicle: saline); 207 % of control (endpoint: mean survival time, dose: 4.0 mg/kg/injection, schedule: Q01DX005 (ip), vehicle: saline); 124 % of control (endpoint: mean survival time, dose: 4.0 mg/kg/injection, schedule: Q01DX009 (ip), vehicle: saline); 155 % of control (endpoint: mean survival time, dose: 5.0 mg/kg/injection, schedule: Q03HX024 (ip), vehicle: saline). Moreover, the T/C runs as follows: (endpoint: mean survival time, dose: 5.0 mg/kg/injection, schedule: Q04DX003 (ip), vehicle: saline) 163 % of control; (endpoint: mean survival time, dose: 10.0 mg/kg/injection, schedule: Q03HX024 (ip), vehicle: saline) 231 % of control; (endpoint: mean survival time, dose: 10.0 mg/kg/injection, schedule: Q04DX003 (ip), vehicle: saline) 189 % of control; (endpoint: mean survival time, dose: 20.0 mg/kg/injection, schedule: Q01DX001 (ip), vehicle: saline) 151 % of control; (endpoint: mean survival time, dose: 20.0 mg/kg/injection, schedule: Q03HX024 (ip), vehicle: saline) 151 % of control; (endpoint: mean survival time, dose: 20.0 mg/kg/injection, schedule: Q04DX003 (ip), vehicle: saline) 184 % of control.
With `Cc1ccccc1OCCO`, the T/C runs as follows: (endpoint: mean survival time, dose: 50.0 mg/kg/injection, schedule: Q01DX009 (ip), vehicle: other) 100 % of control; (endpoint: mean survival time, dose: 100.0 mg/kg/injection, schedule: Q01DX009 (ip), vehicle: other) 116 % of control and 100 % of control; (endpoint: mean survival time, dose: 200.0 mg/kg/injection, schedule: Q01DX009 (ip), vehicle: other) 102 % of control and 103 % of control; (endpoint: mean survival time, dose: 400.0 mg/kg/injection, schedule: Q01DX009 (ip), vehicle: other) 100 % of control.
Turning to `Cc1ccnc(N)c1.[Cl-].[Cl-].[Cl-].[Cl-].[Pt+2]`, the T/C reads like this: (endpoint: mean survival time, dose: 25.0 mg/kg/injection, schedule: Q04DX003 (ip), vehicle: saline with Tween-80) 106 % of control; (endpoint: mean survival time, dose: 50.0 mg/kg/injection, schedule: Q04DX003 (ip), vehicle: saline with Tween-80) 101 % of control.

Source of the values: PubChem BioAssay AID256 (DTP/NCI, 2004).
